Where a SMILES comes first, the peptide text is derived from it. The star is where a group is joined. Cbz = O=C(OCc1ccccc1)*
Assays:
IRS-2 = test: 32P metabolic labeling and immunoprecipitation of IRS-2, Mv1Lu cells; assay type: cell-based, mink; details: for Effect of proteolysis inhibitors on IGFBP-3-induced mobility change of IRS-2: Mv1Lu, 1 hr prior to and during IGFBP-3 treatment
acidic pH binding sites [1] = target: T1, acidic pH binding sites (Mus musculus, UniProt P14824); test: Specific binding of 125I-ligands to MEF cells at acidic pH; details: for Inhibition of ^125I-α2M* binding to cells: MEF cells, pH 5.5, verapamil and W-5 at 100 μM; for Specific binding of ^125I-α2M*: 10 μM protein, pH 5.5, MEF
T1 sequence (P14824 2-673): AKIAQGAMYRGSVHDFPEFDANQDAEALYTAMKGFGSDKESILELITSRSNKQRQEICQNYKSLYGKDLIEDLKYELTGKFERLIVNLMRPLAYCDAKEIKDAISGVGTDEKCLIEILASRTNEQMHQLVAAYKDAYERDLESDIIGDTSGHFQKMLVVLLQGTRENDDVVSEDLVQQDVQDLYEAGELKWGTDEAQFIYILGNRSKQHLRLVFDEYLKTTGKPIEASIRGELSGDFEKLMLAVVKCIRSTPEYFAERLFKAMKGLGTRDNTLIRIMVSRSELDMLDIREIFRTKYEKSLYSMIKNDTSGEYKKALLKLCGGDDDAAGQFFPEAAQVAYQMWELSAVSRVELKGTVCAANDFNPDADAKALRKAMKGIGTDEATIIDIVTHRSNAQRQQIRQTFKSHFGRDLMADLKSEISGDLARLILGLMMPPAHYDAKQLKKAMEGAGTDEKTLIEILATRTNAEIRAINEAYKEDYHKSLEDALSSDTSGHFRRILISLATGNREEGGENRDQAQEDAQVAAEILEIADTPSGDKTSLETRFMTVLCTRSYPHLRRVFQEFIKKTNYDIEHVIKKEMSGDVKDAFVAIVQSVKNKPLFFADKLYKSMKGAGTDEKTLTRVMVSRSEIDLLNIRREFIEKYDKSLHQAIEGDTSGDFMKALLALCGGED

LRP-1 [2] = target: T2, LRP-1 (Mus musculus, UniProt Q91ZX7); test: 125I-α2M* binding to MEF cells at pH 7.4; details: for ^125I-α2M* binding: 10 μM protein, pH 7.4, MEF
T2 construct: endogenous in cells; host or cells: MEF (mouse embryonic fibroblasts)
T2 sequence (Q91ZX7 20-4545): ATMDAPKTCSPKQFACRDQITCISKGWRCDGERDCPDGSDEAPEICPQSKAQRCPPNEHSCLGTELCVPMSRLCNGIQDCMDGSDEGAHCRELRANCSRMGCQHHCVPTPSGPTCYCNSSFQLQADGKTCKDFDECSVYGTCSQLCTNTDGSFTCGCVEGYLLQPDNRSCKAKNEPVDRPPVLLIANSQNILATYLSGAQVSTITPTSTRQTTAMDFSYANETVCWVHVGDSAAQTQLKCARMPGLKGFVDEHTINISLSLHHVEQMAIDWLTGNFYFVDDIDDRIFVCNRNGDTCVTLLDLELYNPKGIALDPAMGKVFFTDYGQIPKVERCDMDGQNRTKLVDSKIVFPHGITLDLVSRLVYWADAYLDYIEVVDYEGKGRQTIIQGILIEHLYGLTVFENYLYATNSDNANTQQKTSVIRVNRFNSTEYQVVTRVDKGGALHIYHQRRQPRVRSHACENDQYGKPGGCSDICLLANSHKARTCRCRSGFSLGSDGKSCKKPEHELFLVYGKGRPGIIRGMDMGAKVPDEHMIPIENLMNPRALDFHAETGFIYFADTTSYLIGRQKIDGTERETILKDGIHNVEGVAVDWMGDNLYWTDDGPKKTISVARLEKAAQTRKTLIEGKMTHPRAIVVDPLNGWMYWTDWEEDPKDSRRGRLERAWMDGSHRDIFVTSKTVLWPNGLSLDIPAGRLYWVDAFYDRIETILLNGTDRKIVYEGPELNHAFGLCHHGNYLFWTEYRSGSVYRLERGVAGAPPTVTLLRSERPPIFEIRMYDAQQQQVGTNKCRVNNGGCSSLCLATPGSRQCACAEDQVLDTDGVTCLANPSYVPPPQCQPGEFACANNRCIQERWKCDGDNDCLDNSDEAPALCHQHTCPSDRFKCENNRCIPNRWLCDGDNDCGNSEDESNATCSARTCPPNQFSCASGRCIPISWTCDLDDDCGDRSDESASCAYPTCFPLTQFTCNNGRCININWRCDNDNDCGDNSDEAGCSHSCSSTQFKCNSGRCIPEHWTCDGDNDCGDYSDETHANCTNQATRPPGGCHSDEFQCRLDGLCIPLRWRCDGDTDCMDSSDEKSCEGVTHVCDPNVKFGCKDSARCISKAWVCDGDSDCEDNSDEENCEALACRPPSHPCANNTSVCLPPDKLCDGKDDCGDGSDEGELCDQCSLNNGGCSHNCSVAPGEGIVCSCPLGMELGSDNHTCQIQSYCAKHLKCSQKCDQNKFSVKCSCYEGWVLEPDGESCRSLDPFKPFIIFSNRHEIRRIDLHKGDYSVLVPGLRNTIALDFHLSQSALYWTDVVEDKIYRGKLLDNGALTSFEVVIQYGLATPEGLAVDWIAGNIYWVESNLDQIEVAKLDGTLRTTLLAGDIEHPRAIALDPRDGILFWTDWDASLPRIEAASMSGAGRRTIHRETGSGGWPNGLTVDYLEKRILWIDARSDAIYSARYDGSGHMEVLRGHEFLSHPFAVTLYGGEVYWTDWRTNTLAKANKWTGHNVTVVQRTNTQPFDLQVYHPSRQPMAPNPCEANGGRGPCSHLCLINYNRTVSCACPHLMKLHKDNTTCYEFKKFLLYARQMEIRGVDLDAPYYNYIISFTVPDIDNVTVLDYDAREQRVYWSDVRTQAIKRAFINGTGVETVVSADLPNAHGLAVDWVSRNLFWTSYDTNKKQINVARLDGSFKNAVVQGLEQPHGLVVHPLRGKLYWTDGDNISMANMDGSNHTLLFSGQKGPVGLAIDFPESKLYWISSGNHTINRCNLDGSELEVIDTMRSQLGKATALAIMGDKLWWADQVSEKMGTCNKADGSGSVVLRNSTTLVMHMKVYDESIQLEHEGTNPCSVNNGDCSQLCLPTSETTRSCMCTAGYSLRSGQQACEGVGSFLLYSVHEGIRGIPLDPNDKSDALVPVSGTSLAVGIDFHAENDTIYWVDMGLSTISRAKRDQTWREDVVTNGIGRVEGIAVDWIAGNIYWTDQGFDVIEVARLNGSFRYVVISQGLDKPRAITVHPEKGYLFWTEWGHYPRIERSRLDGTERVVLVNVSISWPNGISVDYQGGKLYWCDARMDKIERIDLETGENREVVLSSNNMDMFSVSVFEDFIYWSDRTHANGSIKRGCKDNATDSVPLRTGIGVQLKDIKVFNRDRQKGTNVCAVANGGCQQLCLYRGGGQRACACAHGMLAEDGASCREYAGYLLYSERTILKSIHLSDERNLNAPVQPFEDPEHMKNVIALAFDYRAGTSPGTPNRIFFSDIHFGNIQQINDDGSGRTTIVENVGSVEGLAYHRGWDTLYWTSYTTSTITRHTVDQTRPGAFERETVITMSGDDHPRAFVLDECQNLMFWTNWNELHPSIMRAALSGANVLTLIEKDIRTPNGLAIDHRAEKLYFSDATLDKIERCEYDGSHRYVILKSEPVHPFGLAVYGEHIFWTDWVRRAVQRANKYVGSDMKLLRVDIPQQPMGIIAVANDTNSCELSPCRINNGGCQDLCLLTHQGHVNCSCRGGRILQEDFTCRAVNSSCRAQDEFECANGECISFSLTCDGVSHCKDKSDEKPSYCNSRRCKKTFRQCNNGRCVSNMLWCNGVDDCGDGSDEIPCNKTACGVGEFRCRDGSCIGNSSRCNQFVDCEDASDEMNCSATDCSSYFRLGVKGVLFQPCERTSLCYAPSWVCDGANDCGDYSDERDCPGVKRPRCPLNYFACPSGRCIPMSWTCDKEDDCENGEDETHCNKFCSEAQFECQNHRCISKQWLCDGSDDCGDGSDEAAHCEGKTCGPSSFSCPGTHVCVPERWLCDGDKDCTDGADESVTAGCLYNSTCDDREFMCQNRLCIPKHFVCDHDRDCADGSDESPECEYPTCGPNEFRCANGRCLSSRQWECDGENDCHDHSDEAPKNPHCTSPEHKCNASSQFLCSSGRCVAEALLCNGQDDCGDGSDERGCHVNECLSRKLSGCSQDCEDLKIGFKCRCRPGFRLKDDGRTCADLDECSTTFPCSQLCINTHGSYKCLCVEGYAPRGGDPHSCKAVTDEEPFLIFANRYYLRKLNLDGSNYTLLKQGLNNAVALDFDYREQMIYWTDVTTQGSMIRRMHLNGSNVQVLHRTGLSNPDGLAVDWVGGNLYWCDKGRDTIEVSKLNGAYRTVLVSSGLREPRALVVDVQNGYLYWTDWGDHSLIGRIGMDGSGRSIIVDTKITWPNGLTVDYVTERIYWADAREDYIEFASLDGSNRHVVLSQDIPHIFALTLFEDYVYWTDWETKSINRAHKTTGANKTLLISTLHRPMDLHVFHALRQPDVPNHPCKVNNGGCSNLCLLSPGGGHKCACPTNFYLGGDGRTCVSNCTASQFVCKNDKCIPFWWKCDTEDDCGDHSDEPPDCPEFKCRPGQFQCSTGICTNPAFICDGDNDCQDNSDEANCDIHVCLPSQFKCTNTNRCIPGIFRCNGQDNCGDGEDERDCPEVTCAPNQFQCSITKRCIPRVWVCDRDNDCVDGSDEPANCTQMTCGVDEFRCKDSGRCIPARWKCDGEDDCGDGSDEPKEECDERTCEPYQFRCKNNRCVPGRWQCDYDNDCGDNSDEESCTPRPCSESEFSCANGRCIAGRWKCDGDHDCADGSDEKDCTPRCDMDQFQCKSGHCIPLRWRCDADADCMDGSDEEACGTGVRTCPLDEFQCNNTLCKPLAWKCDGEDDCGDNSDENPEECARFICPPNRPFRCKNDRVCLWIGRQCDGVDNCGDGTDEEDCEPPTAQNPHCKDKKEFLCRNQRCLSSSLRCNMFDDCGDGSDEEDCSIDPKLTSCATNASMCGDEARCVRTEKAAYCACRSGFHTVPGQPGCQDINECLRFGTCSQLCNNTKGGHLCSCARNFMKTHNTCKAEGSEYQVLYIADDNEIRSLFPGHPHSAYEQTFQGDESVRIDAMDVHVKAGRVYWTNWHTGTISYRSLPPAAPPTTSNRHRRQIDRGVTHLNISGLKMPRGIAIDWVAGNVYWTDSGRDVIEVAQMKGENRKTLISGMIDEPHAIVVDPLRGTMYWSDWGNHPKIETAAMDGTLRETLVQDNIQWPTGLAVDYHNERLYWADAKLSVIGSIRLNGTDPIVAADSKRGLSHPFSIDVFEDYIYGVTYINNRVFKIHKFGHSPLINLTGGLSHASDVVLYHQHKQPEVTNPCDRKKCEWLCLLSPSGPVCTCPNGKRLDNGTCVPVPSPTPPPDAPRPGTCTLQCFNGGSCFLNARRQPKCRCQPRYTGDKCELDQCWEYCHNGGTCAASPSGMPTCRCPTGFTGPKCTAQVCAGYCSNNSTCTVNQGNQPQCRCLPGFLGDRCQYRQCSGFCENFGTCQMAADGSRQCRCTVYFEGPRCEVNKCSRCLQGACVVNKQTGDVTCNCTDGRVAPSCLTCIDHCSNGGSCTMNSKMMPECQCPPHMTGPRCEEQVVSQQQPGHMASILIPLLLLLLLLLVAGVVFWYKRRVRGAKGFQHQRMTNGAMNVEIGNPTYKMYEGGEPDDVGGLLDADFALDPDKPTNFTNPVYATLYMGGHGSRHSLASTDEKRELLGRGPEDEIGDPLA

Mv1Lu cells [3] = test: Internalization and degradation of cell surface-bound 125I-TGF-β1 or 125I-α2M*, Mv1Lu cells; assay type: cell-based, mink; details: 10 μM, pH 7.4, 1 hr at 37° C.
Description: After 1 hr at 37° C., the medium was collected and precipitated with 10% trichloroacetic acid (TCA). The TCA-soluble radioactive material in the medium represented the cellular degradation products of 125I-TGF-β1 or 125I-α2M*. The cells were then treated with trypsin (5 mg/ml), maintained for 20 min at 0° C. and centrifuged. The radioactivity in the supernate and cell pellets represented cell surface-bound and internalized 125I-TGF-β1 or 125I-α2M*, respectively. The experiments were performed in quadruplicate.
After 2.5 hr, cells were washed, then warmed to 37° C.

acidic pH binding sites [4] = target: T1, acidic pH binding sites; test: Specific binding of 125I-ligands to PEA-13 cells at acidic pH; set-up: endogenous in cells; host or cells: PEA-13 (LRP-1-deficient mouse embryonic fibroblasts); details: for Specific binding of ^125I-α2M*: 10 μM protein, pH 5.5, PEA-13
LRP-1 [5] = test: 125I-α2M* binding to Mv1Lu cells at pH 7.4; set-up: species or system mink; details: for ^125I-α2M* binding to LRP-1: 10 μg/ml, neutral pH, Mv1Lu cells; for ^125I-α2M* binding: 10 μM protein, pH 7.4, Mv1Lu
acidic pH binding sites [6] = target: acidic pH binding sites (Neogale vison, UniProt A0A8C7BSJ2); test: Specific binding of 125I-ligands to Mv1Lu cells at acidic pH; set-up: species or system mink; details: for Specific binding of ^125I-α2M*: 10 μM protein, pH 5.5, Mv1Lu
Sequence of acidic pH binding sites (Neogale vison, UniProt A0A8C7BSJ2) (A0A8C7BSJ2 entry or part of it): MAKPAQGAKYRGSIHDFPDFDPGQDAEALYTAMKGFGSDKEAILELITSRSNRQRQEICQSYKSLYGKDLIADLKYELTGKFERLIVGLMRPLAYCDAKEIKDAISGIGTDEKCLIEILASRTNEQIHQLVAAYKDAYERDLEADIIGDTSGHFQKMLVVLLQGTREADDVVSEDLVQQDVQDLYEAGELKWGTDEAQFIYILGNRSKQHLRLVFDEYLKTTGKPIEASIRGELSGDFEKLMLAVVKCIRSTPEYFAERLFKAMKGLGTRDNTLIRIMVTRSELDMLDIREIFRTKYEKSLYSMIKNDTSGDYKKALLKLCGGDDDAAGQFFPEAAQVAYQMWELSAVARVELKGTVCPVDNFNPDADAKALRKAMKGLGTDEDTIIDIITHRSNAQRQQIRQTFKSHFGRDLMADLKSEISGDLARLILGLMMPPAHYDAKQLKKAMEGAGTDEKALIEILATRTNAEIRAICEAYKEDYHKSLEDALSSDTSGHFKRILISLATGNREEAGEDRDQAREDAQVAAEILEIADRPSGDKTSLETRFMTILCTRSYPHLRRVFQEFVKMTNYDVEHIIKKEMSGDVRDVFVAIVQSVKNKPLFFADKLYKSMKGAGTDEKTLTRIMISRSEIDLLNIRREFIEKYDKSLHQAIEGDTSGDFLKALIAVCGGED

Mv1Lu cells [7] = test: [methyl-3H] thymidine incorporation (DNA synthesis), Mv1Lu cells; assay type: cell-based, mink; details: insulin 10 nM or cyclic RGD peptide 0.01 μg/ml alone

With CSCC[C@@H](C=O)NC(=O)[C@H](CC(C)C)NC(=O)[C@H](CC(C)C)NC(C)=O [calpain inhibitor II, reference compound] (Ac-Leu-Leu-Met-aldehyde) the “Effect of proteolysis inhibitors on IGFBP-3-induced mobility change of IRS-2” value (IRS-2) was “did not affect”.

In the case of CC(CN1c2ccccc2Sc2ccccc21)N(C)C (centres unmarked) [promethazine, reference compound], the “Inhibition of ^125I-α2M* binding to cells” value (“Inhibition … to cells” for short) (acidic pH binding sites [1]) is reported as “not effective”, the “Inhibition of ^125I-α2M* binding” value (LRP-1 [2]; MEF cells, pH 7.4) is reported as “almost as effective as trifluoperazine and fluphenazine” and the “Degradation of cell surface-bound ^125I-TGF-β1 or ^125I-α2M*” value (Mv1Lu cells [3]) is reported as “did not exhibit any significant effect”. The “Degradation of cell surface-bound ^125I-TGF-β1 or ^125I-α2M*” value (Mv1Lu cells [3]; listed as Promethazine) was “ineffective”.

“native α2M: human α2-macroglobulin purified from plasma” showed an IC50 (acidic pH binding sites [4]; PEA-13 cells, acidic pH, read-out: IC50, inhibition of ^125I-α2M* binding) greater than 0.4 µM.

With heparin sulfate [reference compound] the “^125I-α2M* binding to LRP-1” value (LRP-1 [5]) was “did not significantly affect”, the “Enhancement of ^125I-α2M* binding” value (acidic pH binding sites [6]; 1 μg/ml, Mv1Lu cells, pH 5) was roughly 400% and the “Inhibition of ^125I-α2M* binding” value (acidic pH binding sites [6]; 10 μg/ml, Mv1Lu cells, pH 5) was greater than 80%.

In the case of COC[C@@H]([C@H](O)[C@H](O)C(=O)NCC[C@H](C)c1nc(/C=C/C[C@@H]2O[C@]3(C[C@@H](O)[C@@H]2C)O[C@H]([C@H](C[C@H](O)[C@H](C)[C@H](O)[C@H](C)/C=C(C)/C(C)=C/C=C/C(C)=C\C#N)OC)[C@H](OP(=O)(O)O)C3(C)C)co1)N(C)C [calyculin A, reference compound], the “Effect of phosphatase inhibitors on IGFBP-3-induced specific dephosphorylation / mobility change of IRS-2” value (IRS-2) is reported as “did not appear to affect”.

With [O]=[V]([O-])([O-])[O-] [vanadale, reference compound] the “Effect of phosphatase inhibitors on IGFBP-3-induced specific dephosphorylation / mobility change of IRS-2” value (IRS-2) was “did not appear to affect”.

With apoE: human apoE the “^125I-α2M* binding” value (LRP-1 [5]) was “did not have a significant effect”, the “Specific binding of ^125I-α2M*” value (acidic pH binding sites [4]) was “completely blocked” and the “Specific binding of ^125I-α2M*” value (acidic pH binding sites [1]) was “completely blocked”. For the same molecule, the “Specific binding of ^125I-α2M*” value (acidic pH binding sites [6]) was “completely blocked” and the “^125I-α2M* binding” value (LRP-1 [2]) was “did not have a significant effect”.

With “chondroitin sulfate B [reference compound]” the “^125I-α2M* binding to LRP-1” value (LRP-1 [5]) was “did not significantly affect” and the “Inhibition of ^125I-α2M* binding” value (acidic pH binding sites [6]; Mv1Lu cells, pH 5) was “potent inhibitors”.

CC1(C(=O)O)C2CCC(O2)C1(C)C(=O)O (centres unmarked) [cantharidic acid, reference compound] was tested, and the “Effect of phosphatase inhibitors on IGFBP-3-induced specific dephosphorylation / mobility change of IRS-2” value (IRS-2) was “did not appear to affect”.

With CC(C)C[C@@H](C=O)NC(=O)[C@H](CC(C)C)NC(=O)[C@H](CC(C)C)NC(=O)OCc1ccccc1 [MG-132, reference compound] (Cbz-Leu-Leu-Leu-aldehyde) the “Effect of proteolysis inhibitors on IGFBP-3-induced mobility change of IRS-2” value (IRS-2) was “did not affect”.

In the case of NCCCCCCNS(=O)(=O)c1cccc2c(Cl)cccc12 [W-7, reference compound], the “Inhibition … to cells” value (acidic pH binding sites [1]) is reported as “less effective inhibitors”.

NCCCCCCNS(=O)(=O)c1cccc2ccccc12 [W-5, reference compound] was tested, and the “Inhibition … to cells” value (acidic pH binding sites [1]) was “inactive”.

In the case of “cyclo GRGDSPA (cyclic) [cyclic RGD peptide, reference compound]”, the “Effect alone on TGF-β1-induced inhibition of DNA synthesis” value (Mv1Lu cells [7]) is reported as “Neither insulin (10 nM) nor the cyclic RGD peptide (0.01 μg/ml) alone affected”.

In the case of “chondroitin sulfate A [reference compound]”, the “^125I-α2M* binding to LRP-1” value (LRP-1 [5]) is reported as “did not significantly affect” and the “Inhibition of ^125I-α2M* binding” value (acidic pH binding sites [6]; Mv1Lu cells, pH 5) is reported as “potent inhibitors”.

In the case of “chondroitin sulfate C [reference compound]”, the “^125I-α2M* binding to LRP-1” value (LRP-1 [5]) is reported as “did not significantly affect” and the “Inhibition of ^125I-α2M* binding” value (acidic pH binding sites [6]; Mv1Lu cells, pH 5) is reported as “potent inhibitors”.

With microcystin [reference compound] the “Effect of phosphatase inhibitors on IGFBP-3-induced specific dephosphorylation / mobility change of IRS-2” value (IRS-2) was “did not appear to affect”.

With Pseudomonas exotoxin: a ligand of LRP-1 the “Inhibition … to cells” value (acidic pH binding sites [6]; 0.5 μM, Mv1Lu cells, pH 5 or 6) was “did not effectively inhibit”.

With OCCN1CCN(CCCN2c3ccccc3Sc3ccc(C(F)(F)F)cc32)CC1 [fluphenazine] the “Degradation of cell surface-bound ^125I-TGF-β1 or ^125I-α2M*” value (Mv1Lu cells [3]) was “completely inhibits”.

With CN(C)c1cccc2c(S(=O)(=O)NCCCCCN)cccc12 [monodansylcadaverine, reference compound] the “Inhibition … to cells” value (acidic pH binding sites [1]) was “less effective inhibitors”.

For C=C1[C@@H](O)[C@@H]2O[C@]3(CC[C@H](/C=C/[C@@H](C)[C@@H]4CC(C)=C[C@@]5(O[C@H](C[C@@](C)(O)C(=O)O)CC[C@H]5O)O4)O3)CC[C@H]2O[C@@H]1[C@@H](O)C[C@H](C)[C@H]1O[C@@]2(CCCCO2)CC[C@H]1C [okadaic acid, reference compound], the “Effect of phosphatase inhibitors on IGFBP-3-induced specific dephosphorylation / mobility change of IRS-2” value (IRS-2) was “effectively blocked”.

transferrin: human transferrin was tested, and the “^125I-α2M* binding” value (LRP-1 [5]) was “did not have a significant effect”, the “Specific binding of ^125I-α2M*” value (acidic pH binding sites [4]) was “completely blocked” and the “Specific binding of ^125I-α2M*” value (acidic pH binding sites [1]) was “completely blocked”. For the same molecule, the “Specific binding of ^125I-α2M*” value (acidic pH binding sites [6]) was “completely blocked”, the IC50 (acidic pH binding sites [6]; Mv1Lu cells, pH 5 or 6, read-out: IC50, inhibition of ^125I-α2M* binding to cells) was roughly 0.5 µM and the “^125I-α2M* binding” value (LRP-1 [2]) was “did not have a significant effect”.

Source: patent publication US7741283B2, “Compositions and methods for inhibiting cell proliferation” (St. Louis University, priority 2003, dated 2010)
